These results are taken from patent publication US12370263B2, “Cyclic dinucleotide derivative based antibody-drug conjugates” (DAIICHI SANKYO COMPANY, LIMITED, priority 2018, dated 2025).

The target of assay [1] is T1, HisAviTEV-hSTING (139-342) human REF-mutated protein (Homo sapiens, UniProt Q86WV6).
T1 construct: made in house; host or cells: E. coli Rosetta 2 (DE3), co-expressed with BirA (1-321)
As to the kind of experiment: Protein thermal shift assay, STING C-terminal binding domain protein. The settings on record: test compound final concentration 0.5 mM.

The target of another assay is Human STING (Homo sapiens, UniProt Q86WV6, G230A/H232R/R293Q/R71H). As to the kind of experiment: Reporter gene assay, human STING agonist activity, THP1-Dual cells (HAQ-mutated), IRF pathway. The note with it: THP1-Dual cells IRF EC50, THP1-Dual cells (HAQ-mutated), 24 hours; 100% = maximum count with ML-RR-CDA·2Na+.
Chain of Human STING (Q86WV6 whole entry R71H/G230A/H232R/R293Q): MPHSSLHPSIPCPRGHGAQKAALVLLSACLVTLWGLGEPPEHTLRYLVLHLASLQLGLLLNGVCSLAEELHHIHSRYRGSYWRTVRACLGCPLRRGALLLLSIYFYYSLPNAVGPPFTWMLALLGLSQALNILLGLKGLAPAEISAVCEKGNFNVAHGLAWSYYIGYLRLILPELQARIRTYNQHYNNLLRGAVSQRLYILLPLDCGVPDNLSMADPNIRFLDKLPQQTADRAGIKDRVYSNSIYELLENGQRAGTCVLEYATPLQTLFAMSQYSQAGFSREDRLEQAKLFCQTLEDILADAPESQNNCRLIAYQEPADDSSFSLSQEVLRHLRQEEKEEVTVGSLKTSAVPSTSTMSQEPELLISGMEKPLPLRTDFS
Assay [2] has as its target T2, His-Avi-TEV-mSTING (138-341) mouse wild-type protein (Mus musculus, UniProt Q3TBT3).
T2 construct: made in house; host or cells: E. coli Rosetta 2 (DE3), co-expressed with BirA (1-321)
As to the kind of experiment: Protein thermal shift assay, STING C-terminal binding domain protein. The note with it: test compound final concentration 0.5 mM. Here is the method: Each of these expression strains was added to a TB medium containing 100 μg/mL ampicillin, 50 μg/mL streptomycin, and 30 μg/mL kanamycin, cultured at 37° C., then exposed to 100 μM IPTG for inducible expression, and further cultured at 16° C.
The culture solution was centrifuged, and the resulting bacterial cells were suspended in 50 mM HEPES pH 8.0, 500 mM NaCl, 20 mM imidazole, 1 mM DTT, 5% (w/v) glycerol, Complete EDTA free, and then subjected to freeze-thawing. After addition of Lysozyme and DNase I, proteins were extracted by ultrasonic disintegration, and centrifugation was performed and the resulting supernatant was collected. The supernatant obtained was purified by using an AKTA express chromatography system (GE Healthcare, IL, US) with a HisTrap FF column (GE Healthcare), and eluted with buffer (20 mM HEPES pH 7.5, 120 mM NaCl, 20% Glycerol, 0.8 mM DTT) through a Superdex 200 16/60 column (GE Healthcare). […] The protein concentrations were measured by using a NanoDrop2000 (Thermo Fisher Scientific, MA, US), and the proteins were cryopreserved at −80° C. until use.
The binding ability of each compound to the STING C-terminal binding domain proteins was evaluated by protein thermal shift assay, which uses the elevation of thermal denaturation temperature of protein as an index.
Specifically, 3 μL of a test compound (final concentration: 0.5 mM), 3 μL of SYPRO Orange Protein Gel Stain (Thermo Fisher Scientific) (final concentration: 20-fold), and 6 μL of a STING protein were mixed with use of assay buffer (20 mM Tris-HCl pH 7.5, 120 mM NaCl) in a 384-well real-time PCR plate, and mixed together with a plate shaker. With a real-time PCR system (Thermo Fisher Scientific), the temperature was increased from 25° C. to 95° C. at a rate of 0.03° C./sec, and the thermal denaturation temperature of the protein was measured by using fluorescence emitted from SYPRO Orange as an index. From the measurement acquired, Tm (the midpoint of the unfolding transition) (° C.) was determined as a temperature at which the increase rate of fluorescence intensity was maximized by using the analysis software Protein Thermal Shift software (Thermo Fisher Scientific). The Tm value for a well with no compound was subtracted from the Tm value for each test compound to calculate the Tm shift caused by the compound as ΔTm (° C.).

The target of assay [3] is T3, HisAviTEV-hSTING (139-342) human AQ-mutated protein (Homo sapiens, UniProt Q86WV6, G230A/H232R/R293Q).
T3 construct: made in house; host or cells: E. coli Rosetta 2 (DE3), co-expressed with BirA (1-321)
T3 sequence (Q86WV6 with tags, fused parts or gaps G230A/H232R/R293Q): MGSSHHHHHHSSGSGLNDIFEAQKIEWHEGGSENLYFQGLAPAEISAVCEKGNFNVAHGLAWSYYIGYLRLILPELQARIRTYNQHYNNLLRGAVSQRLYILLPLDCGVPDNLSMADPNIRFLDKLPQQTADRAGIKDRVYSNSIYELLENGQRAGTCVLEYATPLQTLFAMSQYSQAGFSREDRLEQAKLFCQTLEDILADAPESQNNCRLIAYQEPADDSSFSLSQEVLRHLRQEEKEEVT
The description is as above. The note with it: test compound final concentration 0.5 mM.

The target of assay [4] is T4, HisAviTEV-hSTING (139-342) human wild-type protein (Homo sapiens, UniProt Q86WV6, H232R).
T4 construct: made in house; host or cells: E. coli Rosetta 2 (DE3), co-expressed with BirA (1-321)
T4 sequence (Q86WV6 with tags, fused parts or gaps H232R): as the sequence (Q86WV6 with tags, fused parts or gaps G230A/H232R/R293Q) above, with A131G, Q194R counted along it
The assay is described as above. The note with it: test compound final concentration 0.5 mM.

SMILES strings stand for the structures.

T2 sequence (Q3TBT3 with tags, fused parts or gaps limits assumed): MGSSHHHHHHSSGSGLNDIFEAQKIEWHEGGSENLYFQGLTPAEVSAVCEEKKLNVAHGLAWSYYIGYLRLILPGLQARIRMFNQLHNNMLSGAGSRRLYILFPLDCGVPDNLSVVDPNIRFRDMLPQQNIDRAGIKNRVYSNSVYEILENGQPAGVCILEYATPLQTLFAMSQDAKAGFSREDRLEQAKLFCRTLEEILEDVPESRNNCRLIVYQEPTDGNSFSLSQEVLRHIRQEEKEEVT
T1 sequence (Q86WV6 with tags, fused parts or gaps, change not shown): as the sequence (Q86WV6 with tags, fused parts or gaps G230A/H232R/R293Q) above, with A131G, R133H, Q194R counted along it

For the compound `Nc1ncnc2c1ncn2[C@@H]1O[C@@H]2COP(=O)(S)O[C@H]3[C@@H](O)[C@H](n4cc5c6c(ncnc64)NCCC5)O[C@@H]3COP(=O)(S)O[C@@H]1[C@@H]2O` (single isomer, unassigned) [1a], the ΔTm (as a rule, the shift of the melting midpoint relative to a reference) at 500 µM in assay [1] came to 3.4 °C; in assay [2] it was 14.3 °C; in assay [3] it was 12 °C; in assay [4], 8.4 °C. The EC50 (commonly the concentration that produces a half-maximal response) on Human STING is 5900 nM.

In the case of `Nc1nc2c(ncn2[C@@H]2O[C@@H]3COP(=O)(S)O[C@H]4[C@@H](O)[C@H](n5cc6c7c(ncnc75)NCCC6)O[C@@H]4COP(=O)(S)O[C@@H]2[C@@H]3O)c(=O)[nH]1` (single isomer, unassigned) [4a], the ΔTm at 500 µM in assay [1] is 5.2 °C; in assay [2] it was 17.5 °C; in assay [3], 17 °C; in assay [4], 11.5 °C. At Human STING, this compound gave an EC50 of 2100 nM.

For `Nc1nc2c(ncn2[C@@H]2O[C@@H]3COP(=O)(S)O[C@H]4[C@@H](O)[C@H](n5cc6c7c(ncnc75)NCCC6)O[C@@H]4COP(=O)(S)O[C@@H]2[C@@H]3O)c(=O)[nH]1` (single isomer, unassigned) [4b], the “ΔTm Hu-REF” value in assay [1] came out at 3.5 °C. Also, at Human STING, the EC50 was determined as 1500 nM. Also, the “ΔTm Ms-WT” value in assay [2] turned out to be 14.9 °C. The “ΔTm Hu-AQ” value in assay [3] was determined as 13.1 °C. The “ΔTm Hu-WT” value in assay [4] is 9.8 °C.

With `O=C(CO)NCCn1cnc2c(ncn2[C@@H]2O[C@@H]3COP(=O)(S)O[C@H]4[C@@H](O)[C@H](n5cc6c7c(ncnc75)NCCC6)O[C@@H]4COP(=O)(S)O[C@@H]2[C@@H]3O)c1=O` (single isomer, unassigned) [7a], the ΔTm at 500 µM in assay [1] is 3.9 °C; in assay [2], 11.5 °C; in assay [3], 9.7 °C; in assay [4], 8 °C. The compound further displayed an EC50 on Human STING of 3500 nM.

Take `O=C(CO)NCCn1cnc2c(ncn2[C@@H]2O[C@@H]3COP(=O)(S)O[C@H]4[C@@H](O)[C@H](n5cc6c7c(ncnc75)NCCC6)O[C@@H]4COP(=O)(S)O[C@@H]2[C@@H]3O)c1=O` (single isomer, unassigned) [7b]: in assay [1], the “ΔTm Hu-REF” value stood at 2.8 °C. The compound also came in with an EC50 on Human STING of 6100 nM. Besides, the “ΔTm Ms-WT” value in assay [2] was found to be 13.2 °C. Also, the “ΔTm Hu-AQ” value in assay [3] turned out to be 9.5 °C. The “ΔTm Hu-WT” value in assay [4] came out at 7.2 °C.

`NCCNc1nc(N)c2ncn([C@@H]3O[C@@H]4COP(=O)(S)O[C@H]5[C@@H](O)[C@H](n6cc7c8c(ncnc86)NCCC7)O[C@@H]5COP(=O)(S)O[C@@H]3[C@@H]4O)c2n1` (single isomer, unassigned) [8a]: the ΔTm at 500 µM in assay [1] came out at 2.8 °C; in assay [2], 11.5 °C; in assay [3], 10.8 °C; in assay [4], 7.6 °C. On Human STING, this compound registered a 50% effective concentration (EC50) of 3100 nM.

With `Nc1nc(CO)nc2c1ncn2[C@@H]1O[C@@H]2COP(=O)(S)O[C@H]3[C@@H](O)[C@H](n4cc5c6c(ncnc64)NCCC5)O[C@@H]3COP(=O)(S)O[C@@H]1[C@@H]2O` (single isomer, unassigned) [12a], the ΔTm at 500 µM in assay [1] turned out to be 3 °C; in assay [2], 11.9 °C; in assay [3], 9.6 °C; in assay [4] it was 8 °C.

For the compound `O=P1(S)OC[C@H]2O[C@@H](n3cc4c5c(ncnc53)NCCC4)[C@H](O)[C@@H]2OP(=O)(S)OC[C@H]2O[C@@H](n3cnc4c(CO)ncnc43)[C@H](O1)[C@@H]2O` (single isomer, unassigned) [17a], the ΔTm at 500 µM in assay [1] is 2.7 °C; in assay [2] it was 12.6 °C; in assay [3], 10.7 °C; in assay [4], 7.3 °C. The same compound showed an EC50 at Human STING of 4400 nM.

In the case of `O=P1(S)OC[C@H]2O[C@@H](n3cc4c5c(ncnc53)NCCC4)[C@H](O)[C@@H]2OP(=O)(S)OC[C@H]2O[C@@H](n3cnc4c(CO)ncnc43)[C@H](O1)[C@@H]2O` (single isomer, unassigned) [17b], the “ΔTm Hu-REF” value in assay [1] stood at 2.2 °C. Further, on Human STING, the EC50 is 1000 nM. For the same compound, the “ΔTm Ms-WT” value in assay [2] turned out to be 12.6 °C. The “ΔTm Hu-AQ” value in assay [3] came out at 10.4 °C. The “ΔTm Hu-WT” value in assay [4] worked out at 7.4 °C.

Turning to `Nc1ncnc2c1ncn2[C@@H]1O[C@@H]2COP(=O)(S)O[C@H]3[C@@H](O)[C@H](n4cc5c6c(ncnc64)OCCC5)O[C@@H]3COP(=O)(S)O[C@@H]1[C@@H]2O` (single isomer, unassigned) [20a], the ΔTm at 500 µM in assay [1] was determined as 3.7 °C; in assay [2] it was 12.4 °C; in assay [3] it was 9.7 °C; in assay [4], 7.5 °C.

Turning to `Nc1ncnc2c1ncn2[C@@H]1O[C@@H]2COP(=O)(S)O[C@H]3[C@@H](O)[C@H](n4cc5c6c(ncnc64)SCCC5)O[C@@H]3COP(=O)(S)O[C@@H]1[C@@H]2O` (single isomer, unassigned) [23a], the ΔTm at 500 µM in assay [1] stood at 4.2 °C; in assay [2], 15.6 °C; in assay [3], 12.2 °C; in assay [4], 9.7 °C. Further, on Human STING, the EC50 came out at 2600 nM.

As to `O=c1[nH]cnc2c1ncn2[C@@H]1O[C@@H]2COP(=O)(S)O[C@H]3[C@@H](O)[C@H](n4cc5c6c(ncnc64)NCCC5)O[C@@H]3COP(=O)(S)O[C@@H]1[C@@H]2O` (single isomer, unassigned) [25a], the ΔTm at 500 µM in assay [1] amounted to 6.2 °C; in assay [2], 16 °C; in assay [3], 15 °C; in assay [4], 11.4 °C. On Human STING, this compound returned an EC50 of 1300 nM.

Turning to `O=c1[nH]cnc2c1ncn2[C@@H]1O[C@@H]2COP(=O)(S)O[C@H]3[C@@H](O)[C@H](n4cc5c6c(ncnc64)NCCC5)O[C@@H]3COP(=O)(S)O[C@@H]1[C@@H]2O` (single isomer, unassigned) [25b], the “ΔTm Hu-REF” value in assay [1] is 4.6 °C. At Human STING, this compound yielded an EC50 of 900 nM. In assay [2], the “ΔTm Ms-WT” value worked out at 15.8 °C. Moreover, the “ΔTm Hu-AQ” value in assay [3] worked out at 13.1 °C. For the same compound, the “ΔTm Hu-WT” value in assay [4] is 10.6 °C.

Turning to `O=c1c2ncn([C@@H]3O[C@@H]4COP(=O)(S)O[C@H]5[C@@H](O)[C@H](n6cc7c8c(ncnc86)NCCC7)O[C@@H]5COP(=O)(S)O[C@@H]3[C@@H]4O)c2ncn1CCCO` (single isomer, unassigned) [26b], the ΔTm at 500 µM in assay [1] is 3.9 °C; in assay [2] it was 14.1 °C; in assay [3] it was 11.5 °C; in assay [4], 9.1 °C. Besides, the EC50 at Human STING is 1200 nM.

Turning to `O=c1c2ncn([C@@H]3O[C@@H]4COP(=O)(S)O[C@H]5[C@@H](F)[C@H](n6cc7c8c(ncnc86)NCCC7)O[C@@H]5COP(=O)(S)O[C@@H]3[C@@H]4O)c2ncn1CCO` (single isomer, unassigned) [34a], the ΔTm at 500 µM in assay [1] is 8.8 °C; in assay [2], 20.3 °C; in assay [3], 18.9 °C; in assay [4], 14.7 °C. For the same compound, the EC50 on Human STING is 200 nM.

On to `NCCn1cnc2c(ncn2[C@@H]2O[C@@H]3COP(=O)(S)O[C@H]4[C@@H](F)[C@H](n5cc6c7c(ncnc75)NCCC6)O[C@@H]4COP(=O)(S)O[C@@H]2[C@@H]3O)c1=O` (single isomer, unassigned) [35a], for which the ΔTm at 500 µM came out at 6.6 °C in assay [1], 13.5 °C in assay [2], 13.1 °C in assay [3] and 11 °C in assay [4]. It took 2000 nM to reach a half-maximal effect on Human STING (EC50).

For the compound `NCCn1cnc2c(ncn2[C@@H]2O[C@@H]3COP(=O)(S)O[C@H]4[C@@H](F)[C@H](n5cc6c7c(ncnc75)NCCC6)O[C@@H]4COP(=O)(S)O[C@@H]2[C@@H]3O)c1=O` (single isomer, unassigned) [35b], the “ΔTm Hu-REF” value in assay [1] stood at 5.8 °C. On Human STING, a half-maximal effect (EC50) was put at 3400 nM. In addition, the “ΔTm Ms-WT” value in assay [2] was found to be 14.2 °C. In addition, in assay [3], the “ΔTm Hu-AQ” value is 12.6 °C. Besides, in assay [4], the “ΔTm Hu-WT” value was found to be 10.3 °C.
